Measured values published in US12590062B2, “PD-1/PD-L1 inhibitors” (Gilead Sciences, Inc., priority 2017, dated 2026).

Assays:
PD-1/PD-L1 interaction = molecular target: T1, PD-1/PD-L1 interaction (Homo sapiens, UniProt Q9NZQ7); experiment: PD-1/PD-L1 NFAT reporter co-culture assay; assay type: cell-based; conditions: Jurkat PD-1 NFAT-luciferase cells co-cultured with aAPC-PD-L1 CHO cells, 6 hrs at 37° C.; read-out: EC50 NFAT Luciferase
T1 construct: expressed in transfected cells; host or cells: CHO cells (aAPC-PD-L1) co-cultured with Jurkat cells overexpressing PD-1 and an NFAT-luciferase reporter
Summary of the method: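 CHO aAPC-PD-L1 seeded overnight; PD-1/NFAT-luc Jurkat + cpd in RPMI 1640, 2% FBS added at once; 6 h, 37 °C; ONE-Glo luminescence; EC50, 4-parameter fit.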

PD-1/PD-L1 = PD-1/PD-L1 (Homo sapiens, UniProt Q9NZQ7); experiment: PD-1/PD-L1 biochemical protein-protein interaction assay (ALPHA); assay type: binding; conditions: 0.3 nM His tagged PD-L1, 2.5 nM biotinylated Fc-PD-1, 60 minutes at 25° C., read-out: IC50 PD-L1-PD-1 Alpha IC50-mono PD-L1-fcP-D1
Summary of the method: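 His-PD-L1 ECD 0.3 nM + biotin-Fc-PD-1 2.5 nM (final), 25 mM Hepes pH 7.4, 150 mM NaCl, 3.4 mM EDTA; 60 min, 25° C; anti-His acceptor/streptavidin donor ALPHA beads; decreased signal = blocked binding; 4-parameter IC50.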

[1] = molecular target: T2, interaction between the recombinant extracellular domain (ECD) of PD-1 and native cell-bound PD-L1 (Homo sapiens, UniProt Q9NZQ7); experiment: CHO/PD-L1 cell capture assay; assay type: cell-based; conditions: CHO cells overexpressing PD-L1, pre-incubated 1 hr with compound, captured on biotinylated Fc-PD-1 coated plates, 75 min at room temperature
T2 construct: expressed in transfected cells
Protocol: EC50-CHO/PD-L1-Capture Assay:
Compounds were tested in a cell capture assay to determine if they can specifically block the interaction between the recombinant extracellular domain (ECD) of PD-1 and native cell-bound PD-L1. Binding affinity of stable CHO cells overexpressing PD-L1 with its cognate recombinant ligand coated on plates was measured by counting the number of ‘captured’ cells. High-capacity streptavidin- coated plates were incubated with biotylated-Fc-PD-1 for 2 hours in PBS. Unbound ligand was washed out. CHO-PD-L1 cells (resuspended in PBS pH 7.4, 0.5 mM EDTA, and 2% bovine serum albumin) were pre-incubated for 1 hr with compound, dispensed into each PD-1 ECD coated well and then incubated for 75 min at room temperature. To stop the capture assay, a fixative/staining solution (final concentrations are 1.3% glutaraldehyde and 1.67 μM Draq5) was gently added to the cells and incubated for 2 hrs at room temperature. Unbound cells were then washed out and ‘captured’ cells were enumerated using a high-content microscopy system. EC50 values were calculated from the fit of the dose-response curves to a four-parameter equation. Representative data are shown below in Table 2.

PD-1/PD-L1, sequence (Q9NZQ7 19-238 limits assumed): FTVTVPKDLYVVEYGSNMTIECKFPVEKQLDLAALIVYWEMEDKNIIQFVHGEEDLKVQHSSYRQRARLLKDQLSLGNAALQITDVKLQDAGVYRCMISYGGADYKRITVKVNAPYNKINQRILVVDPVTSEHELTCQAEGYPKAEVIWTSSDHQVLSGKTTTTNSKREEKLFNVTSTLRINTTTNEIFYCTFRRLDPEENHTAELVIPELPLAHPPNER
T2 sequence (Q9NZQ7 19-290): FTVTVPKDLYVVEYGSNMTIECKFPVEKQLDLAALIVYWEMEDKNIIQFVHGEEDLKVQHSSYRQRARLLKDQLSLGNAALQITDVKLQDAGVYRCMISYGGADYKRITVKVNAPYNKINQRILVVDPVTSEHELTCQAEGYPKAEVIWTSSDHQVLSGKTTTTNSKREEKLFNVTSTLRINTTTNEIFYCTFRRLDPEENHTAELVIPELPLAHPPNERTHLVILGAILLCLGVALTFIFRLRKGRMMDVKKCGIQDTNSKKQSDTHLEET
T1 sequence (Q9NZQ7 19-290): as above

Structure (SMILES)	EC50 (PD-1/PD-L1 interaction) [nM]	IC50 (PD-1/PD-L1) [nM]	EC50 [1] [nM]
CCCc1cc(CNCCO)c(OCc2cncc(C#N)c2)cc1OCc1cccc(-c2cccc(COc3cc(OCc4cncc(C#N)c4)c(CNCCO)cc3CCC)c2C)c1C [Example 39, 5,5′-((((((2,2′-dimethyl-[1,1′-biphenyl]-3,3′-diyl)bis(methylene))bis(oxy))bis(6-(((2-hydroxyethyl)amino)methyl)-4-propyl-3,1-phenylene))bis(oxy))bis(methylene))dinicotinonitrile]	≥ 50000	167	267
Cc1c(COc2nc(OCc3cc(C#N)cc(C#N)c3)c(CNC[C@@H](O)CC(=O)O)cc2Br)cccc1-c1cccc(COc2nc(OCc3cc(C#N)cc(C#N)c3)c(CNC[C@@H](O)CC(=O)O)cc2Br)c1C [Example 121, (3S,3′S)-4,4′-((((((2,2′-dimethyl-[1,1′-biphenyl]-3,3′-diyl)bis(methylene))bis(oxy))bis(5-bromo-2-((3,5-dicyanobenzyl)oxy)pyridine-6,3-diyl))bis(methylene))bis(azanediyl))bis(3-hydroxybutanoic acid)]	74	1.4	176
COc1cc(OCc2cccc(-c3cccc(COc4cc(OC)c(CNC[C@@H](O)CC(=O)O)c(OCc5cncc(C#N)c5)c4)c3C)c2C)cc(OCc2cncc(C#N)c2)c1CNC[C@@H](O)CC(=O)O [Example 245, (3S,3′S)-4,4′-((((((2,2′-dimethyl-[1,1′-biphenyl]-3,3′-diyl)bis(methylene))bis(oxy))bis(2-((5-cyanopyridin-3-yl)methoxy)-6-methoxy-4,1-phenylene))bis(methylene))bis(azanediyl))bis(3-hydroxybutanoic acid)]	3440	0.6	308
Cc1c(COc2nc(OCc3cncc(C#N)c3)c(CNCCO)cc2Cl)cccc1-c1cccc(COc2nc(OCc3cncc(C#N)c3)c(CNCCO)cc2Cl)c1C [Example 35, 5,5′-((((((2,2′-dimethyl-[1,1′-biphenyl]-3,3′-diyl)bis(methylene))bis(oxy))bis(5-chloro-3-(((2-hydroxyethyl)amino)methyl)pyridine-6,2-diyl))bis(oxy))bis(methylene))dinicotinonitrile]	296	15.6	264
Cc1c(-c2ccc(OCCNC[C@@H](O)CC(=O)O)cc2)cccc1-c1cccc(-c2ccc(OCCNC[C@@H](O)CC(=O)O)cc2)c1C [Example 106, (3S,3′S)-4,4′-((((2′,2″-dimethyl-[1,1′:3′,1″:3″,1′″-quaterphenyl]-4,4′″-diyl)bis(oxy))bis(ethane-2,1-diyl))bis(azanediyl))bis(3-hydroxybutanoic acid)]	5270	0.4	110
Cc1c(COc2cc(OCc3cncc(C#N)c3)c(CNCCO)cc2Cl)cccc1-c1cccc(COc2cc(OCc3cncc(C#N)c3)c(CNCCO)cc2Cl)c1 [Example 20, 5,5′-((((((2-methyl-[1,1′-biphenyl]-3,3′-diyl)bis(methylene))bis(oxy))bis(4-chloro-6-(((2-hydroxyethyl)amino)methyl)-3,1-phenylene))bis(oxy))bis(methylene))dinicotinonitrile]	1200	12.6	752
Cc1c(COc2cc(OCc3cncc(C#N)c3)c(CNC[C@@H](O)CC(=O)O)cc2Cl)cccc1-c1cccc2c1CCN2C(=O)c1ccc(CNC[C@@H](O)CC(=O)O)c(OCc2cncc(C#N)c2)c1 [Example 206, (S)-4-((4-(4-(3-((4-((((S)-3-Carboxy-2-hydroxypropyl)amino)methyl)-2-chloro-5-((5-cyanopyridin-3-yl)methoxy)phenoxy)methyl)-2-methylphenyl)indoline-1-carbonyl)-2-((5-cyanopyridin-3-yl)methoxy)benzyl)amino)-3-hydroxybutanoic acid]	672	0.2	161
COc1nc(OCc2cccc(-c3cccc(COc4nc(OC)c(CN(CCCC(N)=O)CC(=O)O)cc4Br)c3C)c2C)c(Br)cc1CNCCCC(N)=O [Example 118, N-(4-amino-4-oxobutyl)-N-((6-((3′-(((5-(((4-amino-4-oxobutyl)amino)methyl)-3-bromo-6-methoxypyridin-2-yl)oxy)methyl)-2,2′-dimethyl-[1,1′-biphenyl]-3-yl)methoxy)-5-bromo-2-methoxypyridin-3-yl)methyl)glycine]	823		169
COc1nc(OCc2cccc(-c3cccc(COc4nc(OC)c(CN5CC[C@@H](O)C[C@H]5C(=O)O)cc4Cl)c3C)c2C)c(Cl)cc1CN1CC[C@@H](O)C[C@H]1C(=O)O [Example 47, (2S,2′S,4R,4′R)-1,1′-(((((2,2′-dimethyl-[1,1′-biphenyl]-3,3′-diyl)bis(methylene))bis(oxy))bis(5-chloro-2-methoxypyridine-6,3-diyl))bis(methylene))bis(4-hydroxypiperidine-2-carboxylic acid)]	503		226

The remaining lines, values ahead:

EC50 (PD-1/PD-L1 interaction) [nM]	IC50 (PD-1/PD-L1) [nM]	EC50 [1] [nM]	Structure (SMILES)
139	0.6	191	COc1nc(OCc2cccc(-c3cccc(COc4nc(OC)c(CNC[C@@H](O)CC(=O)O)cc4C(F)(F)F)c3C)c2C)c(C(F)(F)F)cc1CNC[C@@H](O)CC(=O)O [Example 160, (3S,3′S)-4,4′-((((((2,2′-dimethyl-[1,1′-biphenyl]-3,3′-diyl)bis(methylene))bis(oxy))bis(2-methoxy-5-(trifluoromethyl)pyridine-6,3-diyl))bis(methylene))bis(azanediyl))bis(3-hydroxybutanoic acid)]
244	0.8	218	COc1nc(OCc2cccc(-c3cccc(COc4nc(OC)c(CNC[C@@H](O)CC(=O)O)cc4Cl)c3C)c2C)c(Cl)cc1CNC[C@@H](O)CC(=O)O [Example 29, (3S,3′S)-4,4′-((((((2,2′-dimethyl-[1,1′-biphenyl]-3,3′-diyl)bis(methylene))bis(oxy))bis(5-chloro-2-methoxypyridine-6,3-diyl))bis(methylene))bis(azanediyl))bis(3-hydroxybutanoic acid)]
393	0.2	90.6	COc1nc(OCc2cccc(-c3cccc(COc4nc(OC)c(CNC[C@@H](O)CC(=O)O)cc4C#N)c3C)c2C)c(C#N)cc1CNC[C@@H](O)CC(=O)O [Example 243, (3S,3′S)-4,4′-((((((2,2′-dimethyl-[1,1′-biphenyl]-3,3′-diyl)bis(methylene))bis(oxy))bis(5-cyano-2-methoxypyridine-6,3-diyl))bis(methylene))bis(azanediyl))bis(3-hydroxybutanoic acid)]
696	1	317	COc1nc(OCc2cccc(-c3cccc(COc4cc(OCc5cncc(C#N)c5)c(CNC[C@@H](O)CC(=O)O)cc4Cl)c3C)c2C)ccc1CNC[C@@H](O)CC(=O)O [Example 203, (S)-4-(((6-((3′-((4-((((S)-3-Carboxy-2-hydroxypropyl)amino)methyl)-2-chloro-5-((5-cyanopyridin-3-yl)methoxy)phenoxy)methyl)-2,2′-dimethyl-[1,1′-biphenyl]-3-yl)methoxy)-2-methoxypyridin-3-yl)methyl)amino)-3-hydroxybutanoic acid]
538	0.5	190	Cc1c(COc2nc(OCCN3CCOCC3)c(CNC[C@@H](O)CC(=O)O)cc2Cl)cccc1-c1cccc(COc2nc(OCCN3CCOCC3)c(CNC[C@@H](O)CC(=O)O)cc2Cl)c1C [Example 159, (3S,3′S)-4,4′-((((((2,2′-dimethyl-[1,1′-biphenyl]-3,3′-diyl)bis(methylene))bis(oxy))bis(5-chloro-2-(2-morpholinoethoxy)pyridine-6,3-diyl))bis(methylene))bis(azanediyl))bis(3-hydroxybutanoic acid)]
79		192	Cc1c(COc2nc(OCc3cc(C#N)cc(C#N)c3)c(CNC[C@@H](O)CC(=O)O)cc2Cl)cccc1-c1cccc(COc2nc(OCc3cc(C#N)cc(C#N)c3)c(CNC[C@@H](O)CC(=O)O)cc2Cl)c1C [Example 122, (3S,3′S)-4,4′-((((((2,2′-dimethyl-[1,1′-biphenyl]-3,3′-diyl)bis(methylene))bis(oxy))bis(5-chloro-2-((3,5-dicyanobenzyl)oxy)pyridine-6,3-diyl))bis(methylene))bis(azanediyl))bis(3-hydroxybutanoic acid)]
